Laboratory results: patent US10507214B2 (Druggability Technologies IP Holdco Limited, priority 2016, dated 2019)
Values after ≈ are worked out from the molar mass of the structure shown. Read-outs that look alike come from different tables or passages of the source.

Columns and labels:
[1] = cited from earlier work
[2] = healthy subjects, within the clinical dose range; cited from earlier work
[3] = cited from earlier work; remark: listed apart in the source
[4] = single dose of 200 mg of current formulation; cited from earlier work
[5] = Apparent solubility by UV-VIS spectroscopy after 100 nm filtration; type: physicochemical; settings: thermodynamic from solid; redispersed at 2 mg/mL in ultrapurified water, room temperature
From the text: The resulting solutions were filtered by 100 nm disposable syringe filter.

PAMPA permeability = type: in vitro ADME; settings: pH 7, in water, FaSSIF and FeSSIF
[6] = In-vivo PK test in beagle dogs; settings: oral, dispersed granulates, beagle dogs following a high-fat meal
[7] = single oral dose of radiolabeled drug

solubility [5]	Papp at 4 h (PAMPA permeability)	Tmax ([6]; dog, plasma, 5 mg/kg)	t250 ng/ml [6]	Compound	time of peak plasma levels ([1]; after an oral dose)	effective half-life ([1]; fasted conditions)	dose proportionality of Cmax and AUC ([1]; fasting conditions, up to 200 mg BID)	overall systemic exposure (AUC), intact capsule versus capsule contents sprinkled on applesauce ([1]; healthy adult volunteers)	apparent plasma clearance (CL/F) ([1]; in vivo)	unchanged drug recovered in the urine and feces ([1]; in vivo)	steady-state conditions reached ([1]; multiple dosing)	time of peak plasma levels ([1]; single dose of 200 mg of current formulation, oral)	carboxylic acid metabolite in urine and feces [1, 7]	dose excreted in the feces [1, 7]	dose excreted into the urine [1, 7]	protein bound [2]	solubility in chloroform ([3]; chloroform)	solubility in methanol ([3]; methanol)	solubility in water ([3]; water)	onset of pain relief [4]
–	–	–	–	Cc1ccc(-c2cc(C(F)(F)F)nn2-c2ccc(S(N)(=O)=O)cc2)cc1 [Celecoxib, 4-[5-(4-methylphenyl)-3-(trifluoromethyl)-1H-pyrazol-1-yl] benzenesulfonamide]	approximately 3 hrs	approximately 11 hours	roughly dose-proportional	equivalent	about 500 mL/min	< 3%	≤ 5 days	3 h	73 % of dose	approximately 57%	~27%	~97%	soluble	soluble	insoluble	≥ 1 h
2.85 µg/mL (≈ 7.47 µM)	< 0.2 ×10⁻⁶ cm/s	2 h	45 min	Cc1ccc(-c2cc(C(F)(F)F)nn2-c2ccc(S(N)(=O)=O)cc2)cc1 [crystalline Celecoxib (micronized)]	–	–	–	–	–	–	–	–	–	–	–	–	–	–	–	–
